Reference: ChEMBL document CHEMBL5108072, “Discovery of Chlorofluoroacetamide-Based Covalent Inhibitors for Severe Acute Respiratory Syndrome Coronavirus 2 3CL Protease” (J Med Chem, 2022)
The source made the active and inactive calls. No cut-off for these calls is given here.

What was measured:
[1] = system: Middle East respiratory syndrome-related coronavirus; assay: microbe, parasite or virus in culture; details: EMC2012, HEK-293T
SARS-CoV-2 [2] = assay: microbe, parasite or virus in culture; details: Severe acute respiratory syndrome coronavirus 2, delta TY11-927, HEK-293T
SARS-CoV-2 [3] = assay: microbe, parasite or virus in culture; details: Severe acute respiratory syndrome coronavirus 2, Vero C1008
cells = details: Betacoronavirus 1, HEK-293T
SARS-CoV-2 [4] = assay: microbe, parasite or virus in culture; details: Severe acute respiratory syndrome coronavirus 2, HEK-293T
SARS-CoV-2 [5] = assay: microbe, parasite or virus in culture; details: Severe acute respiratory syndrome coronavirus 2, Vero C1008; remark: listed apart in the source
SARS-CoV-2 [6] = assay: microbe, parasite or virus in culture; details: Severe acute respiratory syndrome coronavirus 2, alpha QK002, HEK-293T
SARS-CoV = assay: microbe, parasite or virus in culture; details: Severe acute respiratory syndrome-related coronavirus, HEK-293T
[7] = Bioavailability in fasted ICR/c mouse at 100 mg/kg, po or 10 mg/kg, iv by LC-MS/MS analysis; type: ADME, organism-based; details: in vivo
Cathepsin B = Cathepsin B (Homo sapiens, UniProt P07858); assay: Inhibition of C-terminal His-tagged Human cathepsin B expressed in FreeStyle 293-F cells using Z-Leu-Arg-MCA peptide as fluorogenic substrate preincubated for 30 mins followed by substrate addition and measured after 1 hr by multimode plate reader analysis; type: cell-based
Procathepsin L = Procathepsin L (Homo sapiens, UniProt P07711); assay: Inhibition of C-terminal His-tagged recombinant Human cathepsin L (18 to 333 residues) expressed in FreeStyle 293-F cells using Z-Leu-Arg-MCA peptide as fluorogenic substrate preincubated for 30 mins followed by substrate addition and measured after 1 hr by multimode plate reader analysis; type: cell-based
[8] = Drug concentration in fasted ICR/c mouse lungs at 100 mg/kg, po measured after 6 hrs by LC-MS/MS analysis; type: ADME, organism-based, Lung; details: in vivo
[9] = target: Replicase polyprotein 1ab (Severe acute respiratory syndrome coronavirus 2) (UniProt P0DTD1); assay: Irreversible inhibition of recombinant full length SARS-CoV-2 3CLpro expressed in Escherichia coli using Ac-Abu-Tle-Leu-Gln-MCA as fluorogenic substrate assessed as inhibition of substrate hydrolysis at upto 500 nM incubated for 60 mins by multimode plate reader analysis; details: TDE = time-dependent effect
[10] = Plasma protein binding in mouse assessed as unbound fraction at 1 uM incubated for 16 to 20 hrs by LC-MS/MS analysis; type: ADME, cell-free; details: time 16-20 hrs
[11] = GSH reactivity in potassium phosphate buffer at pH 7.4 assessed as half life at 1 mM; type: physicochemical; details: potassium phosphate buffer with GSH
Cathepsin S = Cathepsin S (Homo sapiens, UniProt P25774); assay: Inhibition of C-terminal His-tagged recombinant Human cathepsin S (17 to 331 residues) expressed in FreeStyle 293-F cells using Z-Leu-Arg-MCA peptide as fluorogenic substrate preincubated for 30 mins followed by substrate addition and measured after 1 hr by multimode plate reader analysis; type: cell-based
[12] = Drug concentration in fasted ICR/c mouse lungs at 10 mg/kg, iv measured after 6 hrs by LC-MS/MS analysis; type: ADME, organism-based, Lung; details: in vivo
[13] = Toxicity in fasted ICR/c mouse assessed as debilitation at 100 mg/kg, po; type: organism-based; details: in vivo
[14] = Toxicity in fasted ICR/c mouse assessed as hypotension at 100 mg/kg, po; type: organism-based; details: in vivo
[15] = target: Replicase polyprotein 1ab (Severe acute respiratory syndrome coronavirus 2, UniProt P0DTD1); assay: Inhibition of recombinant full length SARS-CoV-2 3CLpro expressed in Escherichia coli using Ac-Abu-Tle-Leu-Gln-MCA as fluorogenic substrate preincubated for 30 mins followed by substrate addition and measured for 6 hrs by multimode plate reader analysis
[16] = target: Replicase polyprotein 1ab (Severe acute respiratory syndrome coronavirus 2) (UniProt P0DTD1); assay: Binding affinity to SARS-CoV-2 3CLpro spiked in human A-431 cells assessed as increase in fluorescence intensity at 0.1 uM incubated for 1 hr by gel electrophoresis based fluorescence analysis; type: cell-based

Sequence of Procathepsin L (P07711 whole entry, the tested form may be a part): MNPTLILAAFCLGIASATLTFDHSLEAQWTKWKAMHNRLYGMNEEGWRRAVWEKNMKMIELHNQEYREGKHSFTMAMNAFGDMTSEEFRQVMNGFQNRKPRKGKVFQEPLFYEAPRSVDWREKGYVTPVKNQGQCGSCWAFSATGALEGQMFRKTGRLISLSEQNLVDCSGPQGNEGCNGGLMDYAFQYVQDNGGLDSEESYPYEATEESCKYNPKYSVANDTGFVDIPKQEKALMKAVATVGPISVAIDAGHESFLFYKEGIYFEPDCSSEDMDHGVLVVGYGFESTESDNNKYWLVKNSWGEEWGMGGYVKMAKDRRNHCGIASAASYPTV
Sequence of Cathepsin S (P25774 whole entry, the tested form may be a part): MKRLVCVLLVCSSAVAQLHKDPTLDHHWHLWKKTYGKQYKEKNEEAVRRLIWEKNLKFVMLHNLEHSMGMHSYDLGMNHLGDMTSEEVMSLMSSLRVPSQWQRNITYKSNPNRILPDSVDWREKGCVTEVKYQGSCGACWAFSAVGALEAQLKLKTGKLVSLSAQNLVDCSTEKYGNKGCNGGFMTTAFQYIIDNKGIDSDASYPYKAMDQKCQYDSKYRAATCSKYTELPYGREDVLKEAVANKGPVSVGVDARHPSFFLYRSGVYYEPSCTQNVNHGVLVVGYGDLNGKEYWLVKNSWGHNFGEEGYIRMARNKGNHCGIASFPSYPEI

COc1cccc2[nH]c(C(=O)N[C@@H](CC(C)C)C(=O)N[C@@H](C[C@@H]3CCNC3=O)C(=O)CO)cc12 [PF-00835231]
EC50 [1]: 700 nM | EC50 (SARS-CoV-2 [2]): 692 nM | EC50 (SARS-CoV-2 [3]): 509 nM | EC50 (cells): 929 nM | EC50 (SARS-CoV-2 [4]): 915 nM | EC50 (SARS-CoV-2 [5]): > 50000 nM | EC50 (SARS-CoV-2 [6]): 1600 nM | EC50 (SARS-CoV): 3240 nM

CC(C)C[C@H](NC(=O)c1cc2c(F)cccc2[nH]1)C(=O)NN(C[C@@H]1CCNC1=O)C(=O)[C@H](F)Cl
EC50 [1]: 4.72 nM | bioavailability [7]: 9% | EC50 (SARS-CoV-2 [2]): 737 nM | IC50 (Cathepsin B): > 50000 nM | IC50 (Procathepsin L): > 50000 nM | Ct [8]: 78 nmol/mg | inhibition [9]: Tde | EC50 (SARS-CoV-2 [3]): 59 nM | Fu [10]: 0.15% | half-life at 1000 µM [11]: 48.2 h | EC50 (cells): 1.67 nM | IC50 (Cathepsin S): > 50000 nM | Ct [12]: 63 nmol/mg | EC50 (SARS-CoV-2 [6]): 13.8 nM | EC50 (SARS-CoV): 59.3 nM

CC(C)C[C@H](NC(=O)c1cc2c(F)cccc2[nH]1)C(=O)NN(C[C@H]1CCNC1=O)C(=O)[C@H](F)Cl
EC50 (SARS-CoV-2 [2]): 44.5 nM | EC50 (SARS-CoV-2 [3]): 423 nM | EC50 (SARS-CoV-2 [4]): 141 nM | EC50 (SARS-CoV-2 [5]): > 50000 nM | EC50 (SARS-CoV-2 [6]): 92.3 nM

COc1cccc2[nH]c(C(=O)N[C@@H](CC(C)C)C(=O)NN(C[C@H]3CCNC3=O)C(=O)[C@H](F)Cl)cc12
EC50 (SARS-CoV-2 [2]): 50 nM | EC50 (SARS-CoV-2 [3]): 389 nM | EC50 (SARS-CoV-2 [4]): 119 nM | EC50 (SARS-CoV-2 [5]): > 50000 nM | EC50 (SARS-CoV-2 [6]): 103 nM

COc1cccc2[nH]c(C(=O)N[C@@H](CC(C)C)C(=O)NN(C[C@@H]3CCNC3=O)C(=O)[C@H](F)Cl)cc12
EC50 [1]: 5.01 nM | EC50 (SARS-CoV-2 [2]): 8.79 nM | Activity [13]: Toxic | Activity [14]: Toxic | EC50 (SARS-CoV-2 [3]): 69.7 nM | IC50 [15]: 9.5 nM | EC50 (cells): 3.18 nM | EC50 (SARS-CoV-2 [4]): 24.4 nM | EC50 (SARS-CoV-2 [5]): 20800 nM | EC50 (SARS-CoV-2 [6]): 16.2 nM | EC50 (SARS-CoV): 64.4 nM

C#CCOc1cccc2[nH]c(C(=O)N[C@@H](CC(C)C)C(=O)NN(C[C@@H]3CCNC3=O)C(=O)[C@H](F)Cl)cc12
Activity [16]: Active

CC(=O)N(C[C@@H]1CCNC1=O)NC(=O)[C@H](CC(C)C)NC(=O)c1cc2c(F)cccc2[nH]1
IC50 [15]: 332 nM

CC(C)C[C@H](NC(=O)c1cc2c(F)cccc2[nH]1)C(=O)NN(C[C@@H]1CCNC1=O)C(=O)[C@@H](F)Cl
EC50 (SARS-CoV-2 [2]): 48.7 nM | inhibition [9]: Tde | EC50 (SARS-CoV-2 [4]): 198 nM | EC50 (SARS-CoV-2 [6]): 69 nM

O=c1nc(NO)ccn1[C@@H]1O[C@H](CO)[C@@H](O)[C@H]1O [N-HYDROXYCYTIDINE]
EC50 [1]: 1320 nM | EC50 (SARS-CoV-2 [2]): 351 nM | EC50 (SARS-CoV-2 [3]): 238 nM | EC50 (cells): 1190 nM | EC50 (SARS-CoV-2 [4]): 446 nM | EC50 (SARS-CoV-2 [5]): 204 nM | EC50 (SARS-CoV-2 [6]): 1220 nM | EC50 (SARS-CoV): 1560 nM
